Patent US6525001B1, “Substituted pyrimidine and pyridine herbicides” (Mid-American Commercialization Corporation, priority 1997, dated 2003)

Assays:
Type in all cases: in vivo
Set-up in all cases: key: 0 is no effect; 10 is complete control
[1] = system: bedstraw (Galium aparine); assay: Test B pre-/postemergence; conditions: for Bedstraw plant response rating: Preemergence
How it was run: (§1)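 Response scores run from 0, meaning no effect, to 10, meaning complete control, assigned by eye relative to controls twelve to sixteen days after spraying. Treatment was both preemergence on planted seed and postemergence on plants at the 1- to 4-leaf stage.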

[2] = system: blackgrass (Alopecurus myosuroides); assay: Test B pre-/postemergence; conditions: for Blackgrass plant response rating: Preemergence
How it was run: as §1

[3] = system: broadleaf signalgrass (Brachiaria decumbens); assay: Test B pre-/postemergence; conditions: for B. signalgrass plant response rating: Preemergence
How it was run: as §1

[4] = system: cocklebur (Xanthium strumarium); assay: Test B pre-/postemergence; conditions: for Cocklebur plant response rating: Preemergence
How it was run: as §1

corn (Zea mays) = assay: Test B pre-/postemergence; conditions: for Corn plant response rating: Preemergence
How it was run: as §1

[5] = system: crabgrass (Digitaria sanguinalis); assay: Test B pre-/postemergence; conditions: for Crabgrass plant response rating: Preemergence
How it was run: as §1

[6] = system: giant foxtail (Setaria faberii); assay: Test B pre-/postemergence
How it was run: as §1

[7] = system: momingglory (Ipomoea hederacea); assay: Test B pre-/postemergence
How it was run: as §1

[8] = system: pigweed (Amaranthus retroflexus); assay: Test B pre-/postemergence
How it was run: as §1

[9] = system: purple nutsedge (Cyperus rotundus); assay: Test B pre-/postemergence
How it was run: as §1

rape (Brassica napus) = assay: Test B pre-/postemergence
How it was run: as §1

soybean (Glycine max) = assay: Test B pre-/postemergence
How it was run: as §1

[10] = system: sugar beet (Beta vulgaris); assay: Test B pre-/postemergence
How it was run: as §1

[11] = system: velvetleaf (Abutilon theophrasti); assay: Test B pre-/postemergence
How it was run: as §1

[12] = system: wheat (Triticum aestivum); assay: Test B pre-/postemergence
How it was run: as §1

wild oat (Avena fatua) = assay: Test B pre-/postemergence
How it was run: as §1

[13] = system: bamyardgrass (Echinochloa crus-galli); assay: Test B flood test
How it was run: (§2)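 Each value is a visual injury score relative to controls, with 10 meaning complete control and 0 no effect. Evaluation took place twelve to sixteen days after the 2-leaf-stage plants were treated and kept in the greenhouse.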

[14] = system: duck salad (Heteranthera limosa); assay: Test B flood test
How it was run: as §2

rice (Oryza sativa) = assay: Test B flood test
How it was run: as §2

[15] = system: smallflower flatsedge (Cyperus difformis); assay: Test B flood test
How it was run: as §2

[16] = Rate 250 g/ha, Postemergence (so in the source)
[17] = Rate 62 g/ha, Postemergence (flood test)
[18] = Rate 125 g/ha, Postemergence, flood test
[19] = Rate 250 g/ha, Postemergence (flood test species)
[20] = Rate 125 g/ha, Postemergence section (flood test species)

## Cc1cnc(-c2ccc(C#N)cc2)nc1Cc1cccc(C#N)c1 [Compound 36]
[1]; Rate 62 g/ha, Postemergence
  Plant response rating, Bedstraw: 6
[1]; Rate 62 g/ha
  Bedstraw plant response rating: 0
[1]; Rate 125 g/ha, Postemergence
  Plant response rating, Bedstraw: 7
[1]; Rate 125 g/ha
  Bedstraw plant response rating: 0
[1]; Rate 250 g/ha, Postemergence
  Plant response rating, Bedstraw: 7
[1]; [16]
  Plant response rating, Bedstraw: 0
[2]; Rate 62 g/ha, Postemergence
  Plant response rating, Blackgrass: 0
[2]; Rate 62 g/ha
  Blackgrass plant response rating: 0
[2]; Rate 125 g/ha, Postemergence
  Plant response rating, Blackgrass: 0
[2]; Rate 125 g/ha
  Blackgrass plant response rating: 0
[2]; Rate 250 g/ha, Postemergence
  Plant response rating, Blackgrass: 2
[2]; [16]
  Plant response rating, Blackgrass: 1
[3]; Rate 62 g/ha, Postemergence
  Plant response rating, B. signalgrass: 1
[3]; Rate 62 g/ha
  B. signalgrass plant response rating: 0
[3]; Rate 125 g/ha, Postemergence
  Plant response rating, B. signalgrass: 1
[3]; Rate 125 g/ha
  B. signalgrass plant response rating: 0
[3]; Rate 250 g/ha, Postemergence
  Plant response rating, B. signalgrass: 1
[3]; Rate 250 g/ha, Postemergence as printed in head r139 (second section for compounds 26-50)
  Plant response rating, B. signalgrass: 0
[4]; Rate 62 g/ha, Postemergence
  Plant response rating, Cocklebur: 1
[4]; Rate 62 g/ha
  Cocklebur plant response rating: 0
[4]; Rate 125 g/ha, Postemergence
  Plant response rating, Cocklebur: 2
[4]; Rate 125 g/ha
  Cocklebur plant response rating: 0
[4]; Rate 250 g/ha, Postemergence
  Plant response rating, Cocklebur: 3
[4]; [16]
  Plant response rating, Cocklebur: 0
Corn (Zea mays); Rate 62 g/ha, Postemergence
  Plant response rating, Corn: 1
Corn (Zea mays); Rate 62 g/ha
  Corn plant response rating: 0
Corn (Zea mays); Rate 125 g/ha, Postemergence
  Plant response rating, Corn: 1
Corn (Zea mays); Rate 125 g/ha
  Corn plant response rating: 0
Corn (Zea mays); Rate 250 g/ha, Postemergence
  Plant response rating, Corn: 1
Corn (Zea mays); [16]
  Plant response rating, Corn: 0
[5]; Rate 62 g/ha, Postemergence
  Plant response rating, Crabgrass: 0
[5]; Rate 62 g/ha
  Crabgrass plant response rating: 0
[5]; Rate 125 g/ha, Postemergence
  Plant response rating, Crabgrass: 1
[5]; Rate 125 g/ha
  Crabgrass plant response rating: 0
[5]; Rate 250 g/ha, Postemergence
  Plant response rating, Crabgrass: 1
[5]; [16]
  Plant response rating, Crabgrass: 0
[6]; Rate 62 g/ha, Postemergence
  Plant response rating, Giant foxtail: 0
[6]; Rate 62 g/ha, Preemergence
  Giant foxtail plant response rating: 0
[6]; Rate 125 g/ha, Postemergence
  Giant foxtail plant response rating: 1
[6]; Rate 125 g/ha, Preemergence
  Giant foxtail plant response rating: 0
[6]; Rate 250 g/ha, Postemergence
  Plant response rating, Giant foxtail: 1
[6]; [16]
  Plant response rating, Giant foxtail: 0
[7]; Rate 62 g/ha, Postemergence
  Plant response rating, Morningglory: 1
[7]; Rate 62 g/ha, Preemergence
  Morningglory plant response rating: 0
[7]; Rate 125 g/ha, Postemergence
  Morningglory plant response rating: 2
[7]; Rate 125 g/ha, Preemergence
  Morningglory plant response rating: 0
[7]; Rate 250 g/ha, Postemergence
  Plant response rating, Morningglory: 2
[7]; [16]
  Plant response rating, Morningglory: 0
[8]; Rate 62 g/ha, Postemergence
  Plant response rating, Redroot pigweed: 0
[8]; Rate 62 g/ha, Preemergence
  Redroot pigweed plant response rating: 0
[8]; Rate 125 g/ha, Postemergence
  Redroot pigweed plant response rating: 4
[8]; Rate 125 g/ha, Preemergence
  Redroot pigweed plant response rating: 0
[8]; Rate 250 g/ha, Postemergence
  Plant response rating, Redroot pigweed: 8
[8]; [16]
  Plant response rating, Redroot pigweed: 8
[9]; Rate 62 g/ha, Postemergence
  Plant response rating, Nutsedge: 0
[9]; Rate 62 g/ha, Preemergence
  Nutsedge plant response rating: 0
[9]; Rate 125 g/ha, Postemergence
  Nutsedge plant response rating: 0
[9]; Rate 125 g/ha, Preemergence
  Nutsedge plant response rating: 0
[9]; Rate 250 g/ha, Postemergence
  Plant response rating, Nutsedge: 0
[9]; [16]
  Plant response rating, Nutsedge: 0
Rape (Brassica napus); Rate 62 g/ha, Postemergence
  Plant response rating, Rape: 4
Rape (Brassica napus); Rate 62 g/ha, Preemergence
  Rape plant response rating: 0
Rape (Brassica napus); Rate 125 g/ha, Postemergence
  Rape plant response rating: 5
Rape (Brassica napus); Rate 125 g/ha, Preemergence
  Rape plant response rating: 0
Rape (Brassica napus); Rate 250 g/ha, Postemergence
  Plant response rating, Rape: 5
Rape (Brassica napus); [16]
  Plant response rating, Rape: 1
Soybean (Glycine max); Rate 62 g/ha, Postemergence
  Plant response rating, Soybean: 1
Soybean (Glycine max); Rate 62 g/ha, Preemergence
  Soybean plant response rating: 0
Soybean (Glycine max); Rate 125 g/ha, Postemergence
  Soybean plant response rating: 1
Soybean (Glycine max); Rate 125 g/ha, Preemergence
  Plant response rating, Soybean: 0
Soybean (Glycine max); Rate 250 g/ha, Postemergence
  Plant response rating, Soybean: 2
Soybean (Glycine max); [16]
  Plant response rating, Soybean: 1
[10]; Rate 62 g/ha, Postemergence
  Plant response rating, Sugarbeets: 8
[10]; Rate 62 g/ha, Preemergence
  Sugarbeets plant response rating: 0
[10]; Rate 125 g/ha, Postemergence
  Sugarbeets plant response rating: 8
[10]; Rate 125 g/ha, Preemergence
  Plant response rating, Sugarbeets: 0
[10]; Rate 250 g/ha, Postemergence
  Plant response rating, Sugarbeets: 9
[10]; [16]
  Plant response rating, Sugarbeets: 2
[11]; Rate 62 g/ha, Postemergence
  Plant response rating, Velvetleaf: 1
[11]; Rate 62 g/ha, Preemergence
  Velvetleaf plant response rating: 0
[11]; Rate 125 g/ha, Postemergence
  Velvetleaf plant response rating: 1
[11]; Rate 125 g/ha, Preemergence
  Plant response rating, Velvetleaf: 0
[11]; Rate 250 g/ha, Postemergence
  Plant response rating, Velvetleaf: 1
[11]; [16]
  Plant response rating, Velvetleaf: 1
[12]; Rate 62 g/ha, Postemergence
  Wheat plant response rating: 0
[12]; Rate 62 g/ha, Preemergence
  Wheat plant response rating: 0
[12]; Rate 125 g/ha, Postemergence
  Wheat plant response rating: 1
[12]; Rate 125 g/ha, Preemergence
  Plant response rating, Wheat: 0
[12]; Rate 250 g/ha, Postemergence
  Plant response rating, Wheat: 2
[12]; [16]
  Plant response rating, Wheat: 0
Wild oat (Avena fatua); Rate 62 g/ha, Postemergence
  Wild oats plant response rating: 0
Wild oat (Avena fatua); Rate 62 g/ha, Preemergence
  Wild oats plant response rating: 0
Wild oat (Avena fatua); Rate 125 g/ha, Postemergence
  Wild oats plant response rating: 1
Wild oat (Avena fatua); Rate 125 g/ha, Preemergence
  Plant response rating, Wild oats: 0
Wild oat (Avena fatua); Rate 250 g/ha, Postemergence
  Plant response rating, Wild oats: 2
Wild oat (Avena fatua); [16]
  Plant response rating, Wild oats: 0
[13]; [17]
  Plant response rating, Barnyardgrass: 0
[13]; [18]
  Plant response rating, Barnyardgrass: 0
[13]; [19]
  Plant response rating, Barnyardgrass: 0
[14]; [17]
  Plant response rating, Ducksalad: 0
[14]; [18]
  Plant response rating, Ducksalad: 0
[14]; [19]
  Plant response rating, Ducksalad: 1
Rice (Oryza sativa); [17]
  Plant response rating, Rice: 0
Rice (Oryza sativa); [20]
  Rice plant response rating: 0
Rice (Oryza sativa); [19]
  Plant response rating, Rice: 0
[15]; [17]
  Plant response rating, S. Flatsedge: 2
[15]; [20]
  S. Flatsedge plant response rating: 5
[15]; [19]
  Plant response rating, S. Flatsedge: 6
